Where only a bound is given, the exact number is not on record here.

The target in the experiment is T1, hGPR120 (Homo sapiens, UniProt Q5NUL3).
T1 construct: expressed in transfected cells; host or cells: CHO-K1
T1 sequence (Q5NUL3 1-361): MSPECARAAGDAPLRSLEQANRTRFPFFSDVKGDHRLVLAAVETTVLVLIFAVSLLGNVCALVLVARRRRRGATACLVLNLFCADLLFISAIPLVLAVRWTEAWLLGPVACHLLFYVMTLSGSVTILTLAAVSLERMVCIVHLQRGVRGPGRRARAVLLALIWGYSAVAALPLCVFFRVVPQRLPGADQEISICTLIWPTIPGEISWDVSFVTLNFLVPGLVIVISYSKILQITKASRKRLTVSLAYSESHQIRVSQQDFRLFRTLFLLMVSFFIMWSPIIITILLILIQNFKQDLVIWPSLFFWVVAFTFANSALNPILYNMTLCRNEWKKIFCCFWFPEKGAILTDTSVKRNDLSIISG
Kind of experiment: Measurement of activity of GPR120 agonist (cell-based calcium fluorescence assay). The settings on record: CHO-K1 cells expressing Ga16 and hGPR120, Calcium 5 dye fluorescence; activity class; read-out: EC50. The method in brief:
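CHO-K1 cells co-expressing Gα16 and hGPR120, plated 18 h, loaded with Calcium 5 dye for 1 h at 37 °C, then given serially diluted agonists (final 0.5% DMSO). Fluorescence increase expressed as relative % of the 1% DMSO-only signal.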
`C[C@H](CCC(=O)O)Oc1c(F)cc(-c2cccc(Oc3ccccc3)c2)cc1F` [Example 118, (4R)-4-[2,6-difluoro-4-(3-phenoxyphenyl)phenoxy]pentanoic acid]: the concentration giving a half-maximal response (EC50) is under 200 nM.
The figure for `CC(C)Oc1cccc(-c2cc(F)c(SCC3(CC(=O)O)CC3)c(F)c2)c1` [Example 121, [1-(3,5-difluoro-3′-isopropoxy-biphenyl-4-ylsulfanylmethyl)-cyclopropyl]-acetic acid] is under 200 nM; for `O=C(O)CCCSc1c(F)cc(-c2cccc(OC3CCCC3)c2)cc1F` [Example 122, 4-(3′-cyclopentyloxy-3,5-difluoro-biphenyl-4-ylsulfanyl)-butyric acid] it is under 200 nM; for `O=C(O)CCCSc1ccc(-c2cccnc2OC2CCCC2)cc1` [Example 123, 4-[4-(2-cyclopentyloxy-pyridin-3-yl)-phenylsulfanyl]-butyric acid] it is under 200 nM.
In the case of `O=C(O)CCCSc1ccc(-c2cccnc2OCC2CC2)cc1` [Example 124, 4-[4-(2-cyclopropylmethoxy-pyridin-3-yl)-phenylsulfanyl]-butyric acid], the EC50 was 200 to 2000 nM.
In the case of `O=C(O)CCCSc1ccc(-c2cccc(Oc3ccccc3)c2)cc1` [Example 125, 4-(3′-phenoxy-biphenyl-4-ylsulfanyl)-butyric acid], the EC50 is under 200 nM.
The figure for `O=C(O)CCCSc1ccc(-c2cccc(OC3CCCC3)c2)cc1` [Example 126, 4-(3′-cyclopentyloxy-biphenyl-4-ylsulfanyl)-butyric acid] is under 200 nM; for `CCCOc1cccc(-c2ccc(SCCCC(=O)O)cc2)c1` [Example 127, 4-(3′-propoxy-biphenyl-4-ylsulfanyl)-butyric acid] it is under 200 nM; for `O=C(O)CCCSc1ccc(-c2cccc(OC3CCC3)n2)cc1` [Example 128, 4-[4-(6-cyclobutoxy-pyridin-2-yl)-phenylsulfanyl]-butyric acid] it is under 200 nM.
Consider `O=C(O)CCCSc1ccc(-c2cccc(OC3CCCC3)n2)cc1` [Example 129, 4-[4-(6-cyclopentyloxy-pyridin-2-yl)-phenylsulfanyl]-butyric acid], for which the EC50 lay within 200 to 2000 nM.
Under `CC(C)Oc1cccc(-c2ccc(SCCCC(=O)O)cc2)n1` [Example 130, 4-[4-(6-isopropoxy-pyridin-2-yl)-phenylsulfanyl]-butyric acid] stands under 200 nM; under `CC(C)Oc1ncccc1-c1ccc(SCCCC(=O)O)cc1` [Example 131, 4-[4-(2-isopropoxy-pyridin-3-yl)-phenylsulfanyl]-butyric acid], 200 to 2000 nM; under `CCCOc1cccc(-c2ccc(SCCCC(=O)O)cc2)n1` [Example 132, 4-[4-(6-propoxy-pyridin-2-yl)-phenylsulfanyl]-butyric acid], under 200 nM.
Under `O=C(O)CCCSc1ccc(-c2cccc(SC3CCCC3)n2)cc1` [Example 133, 4-[4-(6-cyclopentylsulfanyl-pyridin-2-yl)-phenylsulfanyl]-butyric acid] stands 200 to 2000 nM.
The figure for `O=C(O)CCCSc1c(F)cc(-c2cccc(OC3CCC3)c2)cc1F` [Example 134, 4-(3′-cyclobutoxy-3,5-difluoro-biphenyl-4-ylsulfanyl)-butyric acid] is under 200 nM; for `CCCOc1cccc(-c2cc(F)c(SCCCC(=O)O)c(F)c2)n1` [Example 136, 4-[2,6-difluoro-4-(6-propoxy-pyridin-2-yl)-phenylsulfanyl]-butyric acid] it is under 200 nM; for `CC(C)Oc1cccc(-c2cc(F)c(SCCCC(=O)O)c(F)c2)n1` [Example 137, 4-[2,6-difluoro-4-(6-isopropoxy-pyridin-2-yl)-phenylsulfanyl]-butyric acid] it is under 200 nM.
On to `CC(C)Oc1ncccc1-c1cc(F)c(SCCCC(=O)O)c(F)c1` [Example 138, 4-[2,6-difluoro-4-(2-isopropoxy-pyridin-3-yl)-phenylsulfanyl]-butyric acid], for which the 50% effective concentration (EC50) is under 200 nM.
Under `CCCOc1ncccc1-c1cc(F)c(SCCCC(=O)O)c(F)c1` [Example 139, 4-[2,6-difluoro-4-(2-propoxy-pyridin-3-yl)-phenylsulfanyl]-butyric acid] stands under 200 nM; under `CC(C)Sc1cccc(-c2cc(F)c(SCCCC(=O)O)c(F)c2)n1` [Example 140, 4-[2,6-difluoro-4-(6-isopropylsulfanyl-pyridin-2-yl)-phenylsulfanyl]-butyric acid], under 200 nM; under `CCCSc1cccc(-c2cc(F)c(SCCCC(=O)O)c(F)c2)n1` [Example 141, 4-[2,6-difluoro-4-(6-propylsulfanyl-pyridin-2-yl)-phenylsulfanyl]-butyric acid], under 200 nM.
Under `O=C(O)CCCSc1c(F)cc(-c2cccnc2SC2CCC2)cc1F` [Example 142, 4-[4-(2-cyclobutylsulfanyl-pyridin-3-yl)-2,6-difluoro-phenylsulfanyl]-butyric acid] stands under 200 nM; under `O=C(O)CCCSc1ccc(-c2cccnc2OC2CCC2)cc1` [Example 143, 4-[4-(2-cyclobutoxy-pyridin-3-yl)-phenylsulfanyl]-butyric acid], 200 to 2000 nM.
Under `O=C(O)CCCSc1c(F)cc(-c2cccnc2OC2CCC2)cc1F` [Example 144, 4-[4-(2-cyclobutoxy-pyridin-3-yl)-2,6-difluoro-phenylsulfanyl]-butyric acid] stands under 200 nM.
As for `O=C(O)CCCSc1c(F)cc(-c2cccnc2OC2CCCC2)cc1F` [Example 145, 4-[4-(2-cyclopentyloxy-pyridin-3-yl)-2,6-difluoro-phenylsulfanyl]-butyric acid], the EC50 is under 200 nM.
Regarding `CC(C)Sc1ncccc1-c1cc(F)c(SCCCC(=O)O)c(F)c1` [Example 146, 4-[2,6-difluoro-4-(2-isopropylsulfanyl-pyridin-3-yl)-phenylsulfanyl]-butyric acid], the 50% effective concentration (EC50) is under 200 nM.
The figure for `O=C(O)CCCSc1c(F)cc(-c2cccnc2SC2CCCC2)cc1F` [Example 147, 4-[4-(2-cyclopentylsulfanyl-pyridin-3-yl)-2,6-difluoro-phenylsulfanyl]-butyric acid] is under 200 nM.
The figure for `CC(C)Sc1ncccc1-c1ccc(SCCCC(=O)O)cc1` [Example 148, 4-[4-(2-isopropylsulfanyl-pyridin-3-yl)-phenylsulfanyl]-butyric acid] is under 200 nM.
The figure for `O=C(O)CCCSc1ccc(-c2cccnc2SC2CCCC2)cc1` [Example 149, 4-[4-(2-cyclopentylsulfanyl-pyridin-3-yl)-phenylsulfanyl]-butyric acid] is under 200 nM; for `O=C(O)CCCSc1ccc(-c2cccnc2SC2CCC2)cc1F` [Example 152, 4-[4-(2-cyclobutylsulfanyl-pyridin-3-yl)-2-fluoro-phenylsulfanyl]-butyric acid] it is under 200 nM.
As for `O=C(O)CCCSc1ccc(-c2cccnc2SC2CCC2)cc1` [Example 153, 4-[4-(2-cyclobutylsulfanyl-pyridin-3-yl)-phenylsulfanyl]-butyric acid], the EC50 is under 200 nM.
Under `O=C(O)CCCSc1c(F)cc(-c2cccc(OC3CCC3)n2)cc1F` [Example 154, 4-[4-(6-cyclobutoxy-pyridin-2-yl)-2,6-difluoro-phenylsulfanyl]-butyric acid] stands under 200 nM; under `O=C(O)CCCSc1c(F)cc(-c2cccc(OC3CCCC3)n2)cc1F` [Example 155, 4-[4-(6-cyclopentyloxy-pyridin-2-yl)-2,6-difluoro-phenylsulfanyl]-bytyric acid], under 200 nM; under `O=C(O)CCCSc1ccc(-c2cccc(SC3CCC3)n2)cc1` [Example 156, 4-[4-(6-cyclobutylsulfanyl-pyridin-2-yl)-phenylsulfanyl]-butyric acid], under 200 nM.
Under `O=C(O)CCCSc1c(F)cc(-c2cccc(SC3CCC3)n2)cc1F` [Example 158, 4-[4-(6-cyclobutylsulfanyl-pyridin-2-yl)-2,6-difluoro-phenylsulfanyl]-butyric acid] stands under 200 nM.
As for `O=C(O)CCCSc1c(F)cc(-c2cccc(SC3CCCC3)n2)cc1F` [Example 159, 4-[4-(6-cyclopentylsulfanyl-pyridin-2-yl)-2,6-difluoro-phenylsulfanyl]-butyric acid], the EC50 is under 200 nM.
The figure for `O=C(O)CCCSc1ccc(-c2ccccc2NC2CCCC2)cc1F` [Example 160, 4-(2′-cyclopentylamino-3-fluoro-biphenyl-4-ylsulfanyl)-butyric acid] is under 200 nM; for `O=C(O)CCCSc1c(F)cc(-c2ccccc2NC2CCCC2)cc1F` [Example 161, 4-(2′-cyclopentylamino-3,5-difluoro-biphenyl-4-ylsulfanyl)-butyric acid] it is under 200 nM; for `O=C(O)CCCSc1c(F)cc(-c2ccccc2NCC2CC2)cc1F` [Example 162, 4-[2′-(cyclopropylmethyl-amino)-3,5-difluoro-biphenyl-4-ylsulfanyl]-butyric acid] it is under 200 nM.
With `CC(C)Sc1ncccc1-c1ccc(SCCCC(=O)O)c(F)c1` [Example 163, 4-[2-fluoro-4-(2-isopropylsulfanyl-pyridin-3-yl)-phenylsulfanyl]butyric acid], the EC50 was under 200 nM.
Consider `O=C(O)CCCSc1ccc(-c2cccnc2SC2CCCC2)cc1F` [Example 164, 4-[4-(2-cyclopentylsulfanyl-pyridin-3-yl)-2-fluoro-phenylsulfanyl]-butyric acid], for which the EC50 is under 200 nM.

Source of the values: patent US10221138B2, “Biaryl derivatives as GPR120 agonists” (LG CHEM, LTD., priority 2013, dated 2019).
